From patent US20020068367A1, “Linker and method for solid phase combinatorial synthesis” (priority 2000, published 2002)
“And” between values parts separate entries of the source, which are not always exact repeats. Equal entries are not always repeated.

Target: T1, fluorescein-streptavidin (Streptomyces avidinii, UniProt P22629)
T1 construct: purchased Calbiochem-Novabiochem Corp., La Jolla, Calif; 189734
Assay: Fluorescence emission standard curve, streptavidin-fluorescein (evaluation of linker 3)
Conditions: for Fluorescence emission (standard curve): replicates
Source text: FIG. 8 is a plot of data from Table 8, derived from evaluation of linker 3;

T1 sequence (P22629 25-183): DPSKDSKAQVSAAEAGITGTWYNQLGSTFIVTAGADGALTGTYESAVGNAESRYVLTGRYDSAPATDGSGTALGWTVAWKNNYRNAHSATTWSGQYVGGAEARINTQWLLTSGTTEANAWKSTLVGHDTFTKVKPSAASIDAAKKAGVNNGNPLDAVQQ

O=C(CCCCCNC(=O)CCCCCNC(=O)CCCCC1SCC2NC(=O)NC21)NCCCCCNC(=O)CCCCCNC(=O)CCCCC1SCC2NC(=O)NC21 (stereo not shown) [Linker 3]
Fluorescence emission (standard curve), mean of Columns 1-3 ([ST/FL] 7.4 pmol): 150.37
Fluorescence emission (standard curve), sum of Columns 1-2 ([ST/FL] 7.4 pmol): 283.8
Fluorescence emission (standard curve), sum of Columns 1-3 ([ST/FL] 7.4 pmol): 451.1
Fluorescence emission (standard curve) ([ST/FL] 7.4 pmol): 112.81 and 170.99 and 167.3
Fluorescence emission (standard curve), mean of Columns 1-3 ([ST/FL] 11.0 pmol): 245.76
Fluorescence emission (standard curve), sum of Columns 1-2 ([ST/FL] 11.0 pmol): 498.27
Fluorescence emission (standard curve), sum of Columns 1-3 ([ST/FL] 11.0 pmol): 737.28
Fluorescence emission (standard curve) ([ST/FL] 11.0 pmol): 270.54 and 227.73 and 239.01
Fluorescence emission (standard curve), mean of Columns 1-3 ([ST/FL] 15.0 pmol): 281.62
Fluorescence emission (standard curve), sum of Columns 1-2 ([ST/FL] 15.0 pmol): 566.42
Fluorescence emission (standard curve), sum of Columns 1-3 ([ST/FL] 15.0 pmol): 844.85
Fluorescence emission (standard curve) ([ST/FL] 15.0 pmol): 307.82 and 258.6 and 278.43
Fluorescence emission (standard curve), mean of Columns 1-3 ([ST/FL] 18.0 pmol): 311.00
Fluorescence emission (standard curve), sum of Columns 1-2 ([ST/FL] 18.0 pmol): 633.01
Fluorescence emission (standard curve), sum of Columns 1-3 ([ST/FL] 18.0 pmol): 933.0
Fluorescence emission (standard curve) ([ST/FL] 18.0 pmol): 361.66 and 271.35 and 299.99
Fluorescence emission (standard curve), mean of Columns 1-3 ([ST/FL] 22.0 pmol): 350.48
Fluorescence emission (standard curve), sum of Columns 1-2 ([ST/FL] 22.0 pmol): 723.72
Fluorescence emission (standard curve), sum of Columns 1-3 ([ST/FL] 22.0 pmol): 1051.4
Fluorescence emission (standard curve) ([ST/FL] 22.0 pmol): 363.91 and 359.81 and 327.71
Fluorescence emission (standard curve), mean of Columns 1-3 ([ST/FL] 26.0 pmol): 461.85
Fluorescence emission (standard curve), sum of Columns 1-2 ([ST/FL] 26.0 pmol): 944.08
Fluorescence emission (standard curve), sum of Columns 1-3 ([ST/FL] 26.0 pmol): 1385.6
Fluorescence emission (standard curve) ([ST/FL] 26.0 pmol): 496.71 and 447.37 and 441.48
Fluorescence emission (standard curve), mean of Columns 1-3 ([ST/FL] 29.0 pmol): 472.31
Fluorescence emission (standard curve), sum of Columns 1-2 ([ST/FL] 29.0 pmol): 1001.7
Fluorescence emission (standard curve), sum of Columns 1-3 ([ST/FL] 29.0 pmol): 1416.9
Fluorescence emission (standard curve) ([ST/FL] 29.0 pmol): 495.93 and 505.81 and 415.18
Fluorescence emission (standard curve), mean of Columns 1-3 ([ST/FL] 36.0 pmol): 567.49
Fluorescence emission (standard curve), sum of Columns 1-2 ([ST/FL] 36.0 pmol): 1141.1
Fluorescence emission (standard curve), sum of Columns 1-3 ([ST/FL] 36.0 pmol): 1702.5
Fluorescence emission (standard curve) ([ST/FL] 36.0 pmol): 569.16 and 571.94 and 561.36
Fluorescence emission (standard curve), mean of Columns 1-3 ([ST/FL] 45.0 pmol): 697.34
Fluorescence emission (standard curve), sum of Columns 1-2 ([ST/FL] 45.0 pmol): 1374.6
Fluorescence emission (standard curve), sum of Columns 1-3 ([ST/FL] 45.0 pmol): 2092.0
Fluorescence emission (standard curve) ([ST/FL] 45.0 pmol): 688.65 and 685.98 and 717.4
Fluorescence emission (standard curve), mean of Columns 1-3 ([ST/FL] 60.0 pmol): 847.26
Fluorescence emission (standard curve), sum of Columns 1-2 ([ST/FL] 60.0 pmol): 1651.9
Fluorescence emission (standard curve), sum of Columns 1-3 ([ST/FL] 60.0 pmol): 2541.8
Fluorescence emission (standard curve) ([ST/FL] 60.0 pmol): 837.57 and 816.34 and 889.88
